Values of other authors, collected in publication PMC11756063, “The fibronectin-targeting PEG-FUD imaging probe shows enhanced uptake during fibrogenesis in experimental lung fibrosis” (Respiratory Research, 2025).

Tested on: fibrotic mouse lung
Conditions: ref [9], [13], [65]
Text: This study has potential impact for the field of molecular imaging of lung fibrosis, as methods that permit more precise and intricate assessment of disease progression are needed in clinical practice. In pulmonary fibrosis, potential molecular imaging targets being developed represent various disease mechanisms, such as activity of pathogenic fibroblasts and macrophages, ECM deposition, as well as detection of pro-fibrotic integrins.

Compound: OC[C@H]1OC(O)[C@H]([18F])[C@@H](O)[C@@H]1O (stereo partly shown) [[^18F]FDG, [^18F]-fluorodeoxyglucose]
- pattern of uptake over the bleomycin model: peak uptake in the early phase of the bleomycin model that decline during the established phase
